US20260069584A1, “METHODS OF TREATING CHRONIC MYELOID LEUKEMIA USING THE TYROSINE KINASE INHIBITOR VODOBATINIB” (Sun Pharma Advanced Research Company Ltd., priority 2022, published 2026)

Key:
[1] = Parts B and C pooled (n=59): safety; conditions: in vivo
Excerpt: Fifty-five of the 59 subjects (93.2%) experienced an AE during the study, of which 62.7% of AEs (n=37) were suspected to be related to the compound of Formula I treatment. Most frequently reported AEs related to the compound of Formula I included thrombocytopenia, neutropenia, nausea, diarrhea, pruritus, fatigue and myalgia. The compound of Formula I-related AEs was generally low grade and resolved with drug hold or dose reduction. […] The AEs were distributed across all the dosing cohorts without any safety trends or association with dose(s). The DLTs (except for 1 event of fatal intracranial hemorrhage) were non-serious AEs and managed well by dose delays and/or reductions. […] A total of 5 subjects died during the study or within 30 days after the last dose of the study drug, which is not unexpected given that all patients enrolled in the study had advanced and heavily pretreated CML. The AEs related to the compound of Formula I treatment were consistent with the advanced CML population with multiple comorbidities and concomitant medications during the study.

With `Cc1ccc(C(=O)NNC(=O)c2c(C)cccc2Cl)cc1C#Cc1cnc2ccccc2c1` [compound of Formula I, N′-(2-chloro-6-methylbenzoyl)-4-methyl-3-[2-(3-quinolyl)ethynyl]-benzohydrazide] the “AEs suspected to be related to treatment” value ([1]; human) was 62.7%, the “subjects who died during the study or within 30 days after the last dose” value ([1]; human) was 5 subjects and the “subjects who experienced an AE” value ([1]; human) was 93.2%. For the same compound, the “subjects who experienced an SAE” value ([1]; human) was 34%, the “subjects with grade 3 or higher-grade AEs” value ([1]; human) was “Approximately 64.4%” and the “relatedness of cardiac AEs” value [1] was “considered unrelated”. For the same compound, the TEAE cough (Part C: adverse events; 19 subjects) was 21.1%, the TEAE dyspnea (Part C: adverse events; 19 subjects) was 21.1% and the TEAE fatigue (Part C: adverse events; 19 subjects) was 21.1%. For the same compound, the TEAE nausea (Part C: adverse events; 19 subjects) was 26.3%, the TEAE neutropenia (Part C: adverse events; 19 subjects) was 21.1% and the TEAE rash (Part C: adverse events; 19 subjects) was 26.3%. For the same compound, the TEAE thrombocytopenia (Part C: adverse events; 19 subjects) was 31.6%, the Abdominal pain (Part C: adverse events; All Grades (N = 19)) was 2 (10.5) n (%) and the Anaemia (Part C: adverse events; All Grades (N = 19)) was 3 (15.8) n (%). For the same compound, the Arthralgia (Part C: adverse events; All Grades (N = 19)) was 2 (10.5) n (%), the Back pain (Part C: adverse events; All Grades (N = 19)) was 2 (10.5) n (%) and the COVID-19 (Part C: adverse events; All Grades (N = 19)) was 2 (10.5) n (%). For the same compound, the Chest pain (Part C: adverse events; All Grades (N = 19)) was 2 (10.5) n (%), the Constipation (Part C: adverse events; All Grades (N = 19)) was 3 (15.8) n (%) and the Contusion (Part C: adverse events; All Grades (N = 19)) was 2 (10.5) n (%). The Cough (Part C: adverse events; All Grades (N = 19)) was 4 (21.1) n (%), the Diarrhoea (Part C: adverse events; All Grades (N = 19)) was 3 (15.8) n (%) and the Dizziness (Part C: adverse events; All Grades (N = 19)) was 2 (10.5) n (%). The Dry skin (Part C: adverse events; All Grades (N = 19)) was 3 (15.8) n (%), the Dyspnoea (Part C: adverse events; All Grades (N = 19)) was 4 (21.1) n (%) and the Fatigue (Part C: adverse events; All Grades (N = 19)) was 4 (21.1) n (%). The Flank pain (Part C: adverse events; All Grades (N = 19)) was 2 (10.5) n (%), the Headache (Part C: adverse events; All Grades (N = 19)) was 3 (15.8) n (%) and the Herpes zoster (Part C: adverse events; All Grades (N = 19)) was 2 (10.5) n (%). The Hypertension (Part C: adverse events; All Grades (N = 19)) was 3 (15.8) n (%), the Hyperuricaemia (Part C: adverse events; All Grades (N = 19)) was 2 (10.5) n (%) and the Hypocalcaemia (Part C: adverse events; All Grades (N = 19)) was 2 (10.5) n (%). For the same compound, the Hypokalaemia (Part C: adverse events; All Grades (N = 19)) was 2 (10.5) n (%), the Hypophosphataemia (Part C: adverse events; All Grades (N = 19)) was 2 (10.5) n (%) and the Muscle spasms (Part C: adverse events; All Grades (N = 19)) was 2 (10.5) n (%). The Nasopharyngitis (Part C: adverse events; All Grades (N = 19)) was 2 (10.5) n (%), the Nausea (Part C: adverse events; All Grades (N = 19)) was 5 (26.3) n (%) and the Neutropenia (Part C: adverse events; All Grades (N = 19)) was 4 (21.1) n (%). The Oropharyngeal pain (Part C: adverse events; All Grades (N = 19)) was 2 (10.5) n (%), the Pancytopenia (Part C: adverse events; All Grades (N = 19)) was 2 (10.5) n (%) and the Rash (Part C: adverse events; All Grades (N = 19)) was 5 (26.3) n (%). For the same compound, the thrombocytopenia (Part C: adverse events; All Grades (N = 19)) was 6 (31.6) n (%), the Abdominal pain (Part C: adverse events; Grade 3 or 4 (N = 9)) was 0 n and the Anaemia (Part C: adverse events; Grade 3 or 4 (N = 9)) was 1 n. For the same compound, the Arthralgia (Part C: adverse events; Grade 3 or 4 (N = 9)) was 0 n, the Back pain (Part C: adverse events; Grade 3 or 4 (N = 9)) was 0 n and the COVID-19 (Part C: adverse events; Grade 3 or 4 (N = 9)) was 1 n. It also gave a Chest pain (Part C: adverse events; Grade 3 or 4 (N = 9)) of 0 n, a Constipation (Part C: adverse events; Grade 3 or 4 (N = 9)) of 0 n and a Contusion (Part C: adverse events; Grade 3 or 4 (N = 9)) of 0 n. The Cough (Part C: adverse events; Grade 3 or 4 (N = 9)) was 0 n, the Diarrhoea (Part C: adverse events; Grade 3 or 4 (N = 9)) was 1 n and the Dizziness (Part C: adverse events; Grade 3 or 4 (N = 9)) was 0 n. The Dry skin (Part C: adverse events; Grade 3 or 4 (N = 9)) was 0 n, the Dyspnoea (Part C: adverse events; Grade 3 or 4 (N = 9)) was 1 n and the Fatigue (Part C: adverse events; Grade 3 or 4 (N = 9)) was 0 n. The Flank pain (Part C: adverse events; Grade 3 or 4 (N = 9)) was 0 n, the Headache (Part C: adverse events; Grade 3 or 4 (N = 9)) was 0 n and the Herpes zoster (Part C: adverse events; Grade 3 or 4 (N = 9)) was 0 n. For the same compound, the Hypertension (Part C: adverse events; Grade 3 or 4 (N = 9)) was 0 n, the Hyperuricaemia (Part C: adverse events; Grade 3 or 4 (N = 9)) was 0 n and the Hypocalcaemia (Part C: adverse events; Grade 3 or 4 (N = 9)) was 1 n. The Hypokalaemia (Part C: adverse events; Grade 3 or 4 (N = 9)) was 1 n, the Hypophosphataemia (Part C: adverse events; Grade 3 or 4 (N = 9)) was 0 n and the Muscle spasms (Part C: adverse events; Grade 3 or 4 (N = 9)) was 0 n. The Nasopharyngitis (Part C: adverse events; Grade 3 or 4 (N = 9)) was 0 n, the Nausea (Part C: adverse events; Grade 3 or 4 (N = 9)) was 1 n and the Neutropenia (Part C: adverse events; Grade 3 or 4 (N = 9)) was 3 n. The Oropharyngeal pain (Part C: adverse events; Grade 3 or 4 (N = 9)) was 0 n, the Pancytopenia (Part C: adverse events; Grade 3 or 4 (N = 9)) was 1 n and the Rash (Part C: adverse events; Grade 3 or 4 (N = 9)) was 0 n. For the same compound, the thrombocytopenia (Part C: adverse events; Grade 3 or 4 (N = 9)) was 4 n, the tolerability (Part C: adverse events; heavily pre-treated CML population) was “well tolerated” and the “Grade 3 or 4 TEAE neutropenia” value (Part C: adverse events; in vivo) was 33.3%. For the same compound, the “Grade 3 or 4 TEAE thrombocytopenia” value (Part C: adverse events; in vivo) was 44.4%.
